Publication PMC7198382 (Journal of nuclear medicine : official publication, Society …, 2019)

Experiments:
CA20948 tumor xenografts = experiment: In vivo 177Lu tumor dosimetry from SPECT VOI analysis; parameters: species or system mice; settings: single exponential fit of tumour time-activity data; mean ± SD
[1] = test system: CA20948 tumor xenograft-bearing mice; experiment: SPECT/CT tumor uptake of 177Lu-DOTATATE; assay type: in vivo; settings: dynamic SPECT imaging after intravenous administration, one mouse

C[C@@H](O)[C@H](NC(=O)[C@@H]1CSSC[C@H](NC(=O)[C@@H](Cc2ccccc2)NC(=O)CN2CCN(CC(=O)O)CCN(CC(=O)O)CCN(CC(=O)O)CC2)C(=O)N[C@@H](Cc2ccc(O)cc2)C(=O)N[C@H](Cc2c[nH]c3ccccc23)C(=O)N[C@@H](CCCCN)C(=O)N[C@@H]([C@@H](C)O)C(=O)N1)C(=O)O [^177Lu-DOTATATE, (DOTA^0-Tyr^3)-octreotate, metal not drawn]
mean effective half-life of clearance from the tumor xenografts (CA20948 tumor xenografts): 46.3 ± 8.6 h
time at which maximum tumor uptake was reached [1]: 60 min
